# Counter-ions that a name gives are not always drawn. Like-named read-outs stand apart in the source and are kept apart here.
# Key:
# Assay in all cases: AK assay 384-well format, Prestwick library screening
# E. faecium = format: cell-based, Enterococcus faecium; settings: 50 μM final drug concentration; for fold induction at 50 µM: Enterococcus faecium, 3 h
# [1] = tested on: S. aureus strain USA300-0114; format: cell-based, Staphylococcus aureus; settings: 50 μM final drug concentration; for fold induction at 50 µM: Staphylococcus aureus, USA300, 3 h
# K. pneumoniae = format: cell-based, Klebsiella pneumoniae; settings: 50 μM final drug concentration; for fold induction at 50 µM: Klebsiella pneumoniae, 3 h
# [2] = tested on: A. baumannii strain 98-37-09; format: cell-based, Acinetobacter baumannii; settings: 50 μM final drug concentration; for fold induction at 50 µM: Acinetobacter baumannii, 983709, 3 h
# P. aeruginosa = format: cell-based, Pseudomonas aeruginosa; settings: 50 μM final drug concentration; for fold induction at 50 µM: Pseudomonas aeruginosa, 3 h
# E. cloacae = format: cell-based, Enterobacter cloacae; settings: 50 μM final drug concentration; for fold induction at 50 µM: Enterobacter cloacae, 3 h
# E. coli = format: cell-based, Escherichia coli; settings: 50 μM final drug concentration; for fold induction at 50 µM: Escherichia coli, 3 h
# [3] = 384-well format, cutoff for positive-scoring molecules 3-fold increase, read-out: AK-based Prestwick Library Screening Results, E. faecium (increase in extracellular AK activity)
# [4] = 384-well format, cutoff for positive-scoring molecules 3-fold increase, read-out: AK-based Prestwick Library Screening Results, S. aureus (increase in extracellular AK activity)
# [5] = 384-well format, cutoff for positive-scoring molecules 3-fold increase, read-out: AK-based Prestwick Library Screening Results, K. pneumoniae (increase in extracellular AK activity)
# [6] = 384-well format, cutoff for positive-scoring molecules 3-fold increase, read-out: AK-based Prestwick Library Screening Results, A. baumannii (increase in extracellular AK activity)
# [7] = 384-well format, cutoff for positive-scoring molecules 3-fold increase, read-out: AK-based Prestwick Library Screening Results, P. aeruginosa (increase in extracellular AK activity)
# [8] = 384-well format, cutoff for positive-scoring molecules 3-fold increase, read-out: AK-based Prestwick Library Screening Results, E. cloacae (increase in extracellular AK activity)
# [9] = 384-well format, cutoff for positive-scoring molecules 3-fold increase, read-out: AK-based Prestwick Library Screening Results, E. coli (increase in extracellular AK activity)
# [10] = planktonic E. faecium, 384-well, cutoff for positive-scoring molecules 3-fold increase, read-out: AK-based Prestwick Library Screening Results: E. faecium (increase in extracellular AK activity)
# [11] = planktonic S. aureus, 384-well, cutoff for positive-scoring molecules 3-fold increase, read-out: AK-based Prestwick Library Screening Results: S. aureus (increase in extracellular AK activity)
# [12] = planktonic K. pneumoniae, 384-well, cutoff for positive-scoring molecules 3-fold increase, read-out: AK-based Prestwick Library Screening Results: K. pneumoniae (increase in extracellular AK activity)
# [13] = planktonic A. baumannii, 384-well, cutoff for positive-scoring molecules 3-fold increase, read-out: AK-based Prestwick Library Screening Results: A. baumannii (increase in extracellular AK activity)
# [14] = planktonic P. aeruginosa, 384-well, cutoff for positive-scoring molecules 3-fold increase, read-out: AK-based Prestwick Library Screening Results: P. aeruginosa (increase in extracellular AK activity)
# [15] = planktonic E. cloacae, 384-well, cutoff for positive-scoring molecules 3-fold increase, read-out: AK-based Prestwick Library Screening Results: E. cloacae (increase in extracellular AK activity)
# [16] = planktonic E. coli, 384-well, cutoff for positive-scoring molecules 3-fold increase, read-out: AK-based Prestwick Library Screening Results: E. coli (increase in extracellular AK activity)
# [17] = cutoff for positive-scoring molecules 3-fold increase
smiles,measurement,setting,value
CC(=O)O[C@]1(C(C)=O)CC[C@H]2[C@@H]3C=C(C)C4=CC(=O)CC[C@@H]4[C@H]3CC[C@@]21C [Nomegestrol acetate],fold induction at 50 µM,"E. faecium; planktonic E. faecium, positive cutoff 3-fold increase, read-out: AK-based Prestwick library screening result, E. faecium (fold increase in extracellular AK activity)",1.2
same,fold induction at 50 µM,"[1]; planktonic S. aureus, positive cutoff 3-fold increase, read-out: AK-based Prestwick library screening result, S. aureus (fold increase in extracellular AK activity)",1
same,fold induction at 50 µM,"K. pneumoniae; planktonic K. pneumoniae, positive cutoff 3-fold increase, read-out: AK-based Prestwick library screening result, K. pneumoniae (fold increase in extracellular AK activity)",1.1
same,fold induction at 50 µM,"[2]; planktonic A. baumannii, positive cutoff 3-fold increase, read-out: AK-based Prestwick library screening result, A. baumannii (fold increase in extracellular AK activity)",1.1
same,fold induction at 50 µM,"P. aeruginosa; planktonic P. aeruginosa, positive cutoff 3-fold increase, read-out: AK-based Prestwick library screening result, P. aeruginosa (fold increase in extracellular AK activity)",1.1
same,fold induction at 50 µM,"E. cloacae; planktonic E. cloacae, positive cutoff 3-fold increase, read-out: AK-based Prestwick library screening result, E. cloacae (fold increase in extracellular AK activity)",1.5
same,fold induction at 50 µM,"E. coli; planktonic E. coli, positive cutoff 3-fold increase, read-out: AK-based Prestwick library screening result, E. coli (fold increase in extracellular AK activity)",1.1
CN1Cc2c(N)cccc2C(c2ccccc2)C1 (stereo not drawn) [Nomifensine maleate],fold induction at 50 µM,E. faecium; [3],0.9
same,fold induction at 50 µM,[1]; [4],0.7
same,fold induction at 50 µM,K. pneumoniae; [5],0.8
same,fold induction at 50 µM,[2]; [6],0.8
same,fold induction at 50 µM,P. aeruginosa; [7],0.8
same,fold induction at 50 µM,E. cloacae; [8],1
same,fold induction at 50 µM,"E. coli; 384-well format, […], read-out: AK-based Prestwick Library Screening Results, E. coli (increase in extracellular AK activity)",0.9
CNCCC=C1c2ccccc2C=Cc2ccccc21 [Norcyclobenzaprine],"AK-based Prestwick Library Screening Results, E. faecium (increase in extracellular AK activity)","E. faecium; planktonic E. faecium, cutoff for positive-scoring molecules 3-fold increase",0.8
same,"AK-based Prestwick Library Screening Results, S. aureus (increase in extracellular AK activity)","[1]; planktonic S. aureus, cutoff for positive-scoring molecules 3-fold increase",0.6
same,"AK-based Prestwick Library Screening Results, K. pneumoniae (increase in extracellular AK activity)","K. pneumoniae; planktonic K. pneumoniae, cutoff for positive-scoring molecules 3-fold increase",0.9
same,"AK-based Prestwick Library Screening Results, A. baumannii (increase in extracellular AK activity)","[2]; planktonic A. baumannii, cutoff for positive-scoring molecules 3-fold increase",1.1
same,"AK-based Prestwick Library Screening Results, P. aeruginosa (increase in extracellular AK activity)","P. aeruginosa; planktonic P. aeruginosa, cutoff for positive-scoring molecules 3-fold increase",1.0
same,"AK-based Prestwick Library Screening Results, E. cloacae (increase in extracellular AK activity)","E. cloacae; planktonic E. cloacae, cutoff for positive-scoring molecules 3-fold increase",1.3
same,"AK-based Prestwick Library Screening Results, E. coli (increase in extracellular AK activity)","E. coli; planktonic E. coli, cutoff for positive-scoring molecules 3-fold increase",6.3
C#C[C@]1(O)CC[C@H]2[C@@H]3CCC4=CC(=O)CC[C@@H]4[C@H]3CC[C@@]21C [Norethindrone],fold induction at 50 µM,E. faecium; [3],1
same,fold induction at 50 µM,[1]; [4],0.8
same,fold induction at 50 µM,K. pneumoniae; [5],0.7
same,fold induction at 50 µM,[2]; [6],0.7
same,fold induction at 50 µM,P. aeruginosa; [7],0.8
same,fold induction at 50 µM,E. cloacae; [8],0.9
same,fold induction at 50 µM,E. coli; [9],0.7
C#C[C@]1(O)CC[C@H]2[C@@H]3CCC4=C(CCC(=O)C4)[C@H]3CC[C@@]21C [Norethynodrel],fold induction at 50 µM,E. faecium; [3],0.9
same,fold induction at 50 µM,[1]; [4],0.7
same,fold induction at 50 µM,K. pneumoniae; [5],0.7
same,fold induction at 50 µM,[2]; [6],0.7
same,fold induction at 50 µM,P. aeruginosa; [7],0.8
same,fold induction at 50 µM,E. cloacae; [8],1
same,fold induction at 50 µM,E. coli; [9],0.9
CCn1cc(C(=O)O)c(=O)c2cc(F)c(N3CCNCC3)cc21 [Norfloxacin],fold induction at 50 µM,E. faecium; [10],1.5
same,fold induction at 50 µM,[1]; [11],1.8
same,fold induction at 50 µM,K. pneumoniae; [12],0.8
same,fold induction at 50 µM,[2]; [13],3.1
same,fold induction at 50 µM,P. aeruginosa; [14],31.3
same,fold induction at 50 µM,E. cloacae; [15],3.1
same,fold induction at 50 µM,E. coli; [16],33.1
C#C[C@]1(O)CC[C@H]2[C@@H]3CCC4=CC(=O)CC[C@@H]4[C@H]3CC[C@@]21CC [Norgestrel-(−)-D],"AK-based Prestwick Library Screening Results, E. faecium (fold increase in extracellular AK activity)",E. faecium; [17],1.0
same,"AK-based Prestwick Library Screening Results, S. aureus (fold increase in extracellular AK activity)",[1]; [17],1.1
same,"AK-based Prestwick Library Screening Results, K. pneumoniae (fold increase in extracellular AK activity)",K. pneumoniae; [17],1.1
same,"AK-based Prestwick Library Screening Results, A. baumannii (fold increase in extracellular AK activity)",[2]; [17],1.1
same,"AK-based Prestwick Library Screening Results, P. aeruginosa (fold increase in extracellular AK activity)",P. aeruginosa; [17],1.1
same,"AK-based Prestwick Library Screening Results, E. cloacae (fold increase in extracellular AK activity)",E. cloacae; [17],1.7
same,"AK-based Prestwick Library Screening Results, E. coli (fold increase in extracellular AK activity)",E. coli; [17],1.0
CNCCC=C1c2ccccc2CCc2ccccc21 [Nortriptyline hydrochloride],fold induction at 50 µM,E. faecium; [3],0.9
same,fold induction at 50 µM,[1]; [4],1
same,fold induction at 50 µM,K. pneumoniae; [5],0.7
same,fold induction at 50 µM,[2]; [6],0.9
same,fold induction at 50 µM,P. aeruginosa; [7],0.8
same,fold induction at 50 µM,E. cloacae; [8],0.9
same,fold induction at 50 µM,E. coli; [9],0.9
COc1ccc2c(c1OC)C(=O)O[C@@H]2[C@H]1c2c(cc3c(c2OC)OCO3)CCN1C [Noscapine],fold induction at 50 µM,E. faecium; [10],0.9
same,fold induction at 50 µM,[1]; [11],0.5
same,fold induction at 50 µM,K. pneumoniae; [12],0.5
same,fold induction at 50 µM,[2]; [13],0.6
same,fold induction at 50 µM,P. aeruginosa; [14],0.5
same,fold induction at 50 µM,E. cloacae; [15],0.6
same,fold induction at 50 µM,E. coli; [16],0.6
CO[C@@H]1[C@@H](OC(N)=O)[C@@H](O)[C@H](Oc2ccc3c(O)c(NC(=O)c4ccc(O)c(CC=C(C)C)c4)c(=O)oc3c2C)OC1(C)C [Novobiocin sodium salt],fold induction at 50 µM,"E. faecium; planktonic, cutoff for positive-scoring molecules 3-fold increase, read-out: AK-based Prestwick Library Screening Results, E. faecium (fold increase in extracellular AK activity)",1.5
same,fold induction at 50 µM,"[1]; planktonic, cutoff for positive-scoring molecules 3-fold increase, read-out: AK-based Prestwick Library Screening Results, S. aureus (fold increase in extracellular AK activity)",4.5
same,fold induction at 50 µM,"K. pneumoniae; planktonic, cutoff for positive-scoring molecules 3-fold increase, read-out: AK-based Prestwick Library Screening Results, K. pneumoniae (fold increase in extracellular AK activity)",0.7
same,fold induction at 50 µM,"[2]; planktonic, cutoff for positive-scoring molecules 3-fold increase, read-out: AK-based Prestwick Library Screening Results, A. baumannii (fold increase in extracellular AK activity)",1.1
same,fold induction at 50 µM,"P. aeruginosa; planktonic, cutoff for positive-scoring molecules 3-fold increase, read-out: AK-based Prestwick Library Screening Results, P. aeruginosa (fold increase in extracellular AK activity)",1
same,fold induction at 50 µM,"E. cloacae; planktonic, cutoff for positive-scoring molecules 3-fold increase, read-out: AK-based Prestwick Library Screening Results, E. cloacae (fold increase in extracellular AK activity)",1.6
same,fold induction at 50 µM,"E. coli; planktonic, cutoff for positive-scoring molecules 3-fold increase, read-out: AK-based Prestwick Library Screening Results, E. coli (fold increase in extracellular AK activity)",3.2
C[C@@H]1[C@H](O)[C@@H](C)/C=C/C=C/CC/C=C/C=C/C=C/C=C/C(O[C@H]2O[C@H](C)[C@@H](O)[C@H](N)[C@@H]2O)CC2O[C@](O)(CC(O)C(O)CCC(O)CC(O)CC(O)CC(=O)O[C@H]1C)CC(O)C2C(=O)O (stereo partly drawn) [Nystatine],"AK-based Prestwick Library Screening Results, E. faecium (increase in extracellular AK activity)","E. faecium; planktonic E. faecium, […]",0.8
same,"AK-based Prestwick Library Screening Results, S. aureus (increase in extracellular AK activity)","[1]; planktonic S. aureus, […]",0.7
same,"AK-based Prestwick Library Screening Results, K. pneumoniae (increase in extracellular AK activity)","K. pneumoniae; planktonic K. pneumoniae, […]",0.8
same,"AK-based Prestwick Library Screening Results, A. baumannii (increase in extracellular AK activity)","[2]; planktonic A. baumannii, […]",0.9
same,"AK-based Prestwick Library Screening Results, P. aeruginosa (increase in extracellular AK activity)","P. aeruginosa; planktonic P. aeruginosa, […]",0.8
same,"AK-based Prestwick Library Screening Results, E. cloacae (increase in extracellular AK activity)","E. cloacae; planktonic E. cloacae, […]",1.4
same,"AK-based Prestwick Library Screening Results, E. coli (increase in extracellular AK activity)","E. coli; planktonic E. coli, […]",1.0
CC1COc2c(N3CCN(C)CC3)c(F)cc3c(=O)c(C(=O)O)cn1c23 (stereo not drawn) [Ofloxacin],fold induction at 50 µM,E. faecium; [10],1.4
same,fold induction at 50 µM,[1]; [11],2.8
same,fold induction at 50 µM,K. pneumoniae; [12],1
same,fold induction at 50 µM,[2]; [13],3.7
same,fold induction at 50 µM,P. aeruginosa; [14],20
same,fold induction at 50 µM,E. cloacae; [15],4.1
same,fold induction at 50 µM,E. coli; [16],15.7
